From patent US10787413B2, “Derivatives of curcuminoids and use thereof as an anticancer agent” (CHINA MEDICAL UNIVERSITY, priority 2016, dated 2020)

Test system: MDA-MB-231 cells
Assay: cDNA microarray
Format: cell-based, human
Method: The cells were incubated with or without 21a. After exposure, cell pellets were collected, and the total RNA from each treatment was purified using the Qiagen RNeasy Mini Kit (Qiagen, Valencia, Calif., USA). The RNA purity was determined to check the quality at 260/280 nm using a NanoDrop 1000 Spectrophotometer (Thermo Fisher Scientific, Wilmington, Del., USA). mRNA was amplified and labeled using the Gene-Chip WT Sense Target Labeling and Control Reagents kit (Affymetrix, Santa Clara, Calif., USA) for expression analysis. The synthesized cDNA was labeled with fluorescence and then hybridized for 17 h using AffymetrixGeneChip Human Gene 1.0 ST array (Affymetrix) to determine microarray hybridization following the manufacturer's protocols. The arrays were subsequently washed using Fluidics Station 450 (Affymetrix), stained with streptavidin-phycoerythrin (Gene-Chip Hybridization, Wash, and Stain kit, Affymetrix), and scanned on a GeneChip Scanner 3000 (Affymetrix). The localized concentrations of fluorescent molecules were quantitated and analyzed using Expression Console Software (Affymetrix) with default RMA parameters as previously described (Chang et al. 2012; Liu et al. 2013). […]

With COc1cc(/C=C/C(=O)/C=C(O)/C=C/c2ccc(OC(=O)C(C)(CO)CO)c(OC)c2)ccc1OC(=O)C(C)(CO)CO [Compound 21a, ((1E,3Z,6E)-3-Hydroxy-5-oxohepta-1,3,6-triene-1,7-diyl)bis(2-methoxy-4,1-phenylene) bis(3-hydroxy-2-(hydroxymethyl)-2-methylpropenoate)] the “log2 (Ratio) RMND5A” value (mRNA, MDA-MB-231 cells, 24-h treatment, ID PH_hs_0027152) was 3.038, the “log2 (Ratio) SLC3A2” value (mRNA, MDA-MB-231 cells, 24-h treatment, ID PH_hs_0027162) was 2.961 and the “log2 (Ratio) GADD45B” value (mRNA, MDA-MB-231 cells, 24-h treatment, ID PH_hs_0027209) was 2.665. The “log2 (Ratio) FAM20C” value (mRNA, MDA-MB-231 cells, 24-h treatment, ID PH_hs_0027843) was −2.724, the “log2 (Ratio) LRRC45” value (mRNA, MDA-MB-231 cells, 24-h treatment, ID PH_hs_0027863) was −2.718 and the “log2 (Ratio) ABL2” value (mRNA, MDA-MB-231 cells, 24-h treatment, ID PH_hs_0027902) was 4.287. The “log2 (Ratio) CENPI” value (mRNA, MDA-MB-231 cells, 24-h treatment, ID PH_hs_0028200) was −2.537, the “log2 (Ratio) CCDC85B” value (mRNA, MDA-MB-231 cells, 24-h treatment, ID PH_hs_0028915) was −2.622 and the “log2 (Ratio) TCF21” value (mRNA, MDA-MB-231 cells, 24-h treatment, ID PH_hs_0028987) was 2.769. For the same compound, the “log2 (Ratio) AKR1C1” value (mRNA, MDA-MB-231 cells, 24-h treatment, ID PH_hs_0029660) was 2.695, the “log2 (Ratio) FANCF” value (mRNA, MDA-MB-231 cells, 24-h treatment, ID PH_hs_0030800) was −2.553 and the “log2 (Ratio) NFKBIB” value (mRNA, MDA-MB-231 cells, 24-h treatment, ID PH_hs_0030976) was 2.516. The “log2 (Ratio) VIMP” value (mRNA, MDA-MB-231 cells, 24-h treatment, ID PH_hs_0031143) was 3.213, the “log2 (Ratio) GNG2” value (mRNA, MDA-MB-231 cells, 24-h treatment, ID PH_hs_0031540) was −2.661 and the “log2 (Ratio) CCL26” value (mRNA, MDA-MB-231 cells, 24-h treatment, ID PH_hs_0031719) was 4.147. For the same compound, the “log2 (Ratio) SIK1” value (mRNA, MDA-MB-231 cells, 24-h treatment, ID PH_hs_0033027) was 2.548, the “log2 (Ratio) DDIT3” value (mRNA, MDA-MB-231 cells, 24-h treatment, ID PH_hs_0033101) was 3.556 and the “log2 (Ratio) OMA1” value (mRNA, MDA-MB-231 cells, 24-h treatment, ID PH_hs_0035337) was −2.514. The “log2 (Ratio) SAT1” value (mRNA, MDA-MB-231 cells, 24-h treatment, ID PH_hs_0035404) was 3.764, the “log2 (Ratio) AKR1C3|AKR1C1” value (mRNA, MDA-MB-231 cells, 24-h treatment, ID PH_hs_0035466) was 2.962 and the “log2 (Ratio) ETV1” value (mRNA, MDA-MB-231 cells, 24-h treatment, ID PH_hs_0035609) was −2.788. The “log2 (Ratio) RC3H1” value (mRNA, MDA-MB-231 cells, 24-h treatment, ID PH_hs_0035614) was 3.063, the “log2 (Ratio) GDF15” value (mRNA, MDA-MB-231 cells, 24-h treatment, ID PH_hs_0035765) was 3.427 and the “log2 (Ratio) PIF1” value (mRNA, MDA-MB-231 cells, 24-h treatment, ID PH_hs_0036878) was −2.714. The “log2 (Ratio) MALAT1” value (mRNA, MDA-MB-231 cells, 24-h treatment, ID PH_hs_0037242) was 2.683, the “log2 (Ratio) MALAT1” value (mRNA, MDA-MB-231 cells, 24-h treatment, ID PH_hs_0037472) was 3.48 and the “log2 (Ratio) LOC100134259” value (mRNA, MDA-MB-231 cells, 24-h treatment, ID PH_hs_0038982) was −2.503. For the same compound, the “log2 (Ratio) MXD3” value (mRNA, MDA-MB-231 cells, 24-h treatment, ID PH_hs_0040619) was −2.891, the “log2 (Ratio) DUSP5” value (mRNA, MDA-MB-231 cells, 24-h treatment, ID PH_hs_0042225) was 2.541 and the “log2 (Ratio) MT4” value (mRNA, MDA-MB-231 cells, 24-h treatment, ID PH_hs_0042334) was 3.931. The “log2 (Ratio) DNAJB1” value (mRNA, MDA-MB-231 cells, 24-h treatment, ID PH_hs_0042409) was 2.767, the “log2 (Ratio) HMGCS1” value (mRNA, MDA-MB-231 cells, 24-h treatment, ID PH_hs_0043719) was 2.895 and the “log2 (Ratio) CLK1” value (mRNA, MDA-MB-231 cells, 24-h treatment, ID PH_hs_0044272) was 2.829. For the same compound, the “log2 (Ratio) HSPA1A” value (mRNA, MDA-MB-231 cells, 24-h treatment, ID PH_hs_0044921) was 2.535, the “log2 (Ratio) EID3” value (mRNA, MDA-MB-231 cells, 24-h treatment, ID PH_hs_0045501) was 4.039 and the “log2 (Ratio) SLC6A6” value (mRNA, MDA-MB-231 cells, 24-h treatment, ID PH_hs_0045838) was 2.838. The “log2 (Ratio) RN7SK” value (mRNA, MDA-MB-231 cells, 24-h treatment, ID PH_hs_0046245) was 4.763, the “log2 (Ratio) MARCKS” value (mRNA, MDA-MB-231 cells, 24-h treatment, ID PH_hs_0047352) was −3.043 and the “log2 (Ratio) PDP1” value (mRNA, MDA-MB-231 cells, 24-h treatment, ID PH_hs_0047571) was −2.547. The “log2 (Ratio) ARF6” value (mRNA, MDA-MB-231 cells, 24-h treatment, ID PH_hs_0047697) was −2.688, the “log2 (Ratio) PHLDA1” value (mRNA, MDA-MB-231 cells, 24-h treatment, ID PH_hs_0047965) was −2.959 and the “log2 (Ratio) MYCT1” value (mRNA, MDA-MB-231 cells, 24-h treatment, ID PH_hs_0048553) was 3.866. For the same compound, the “log2 (Ratio) FKBP4” value (mRNA, MDA-MB-231 cells, 24-h treatment, ID PH_hs_0048881) was 2.809, the “log2 (Ratio) NRP1” value (mRNA, MDA-MB-231 cells, 24-h treatment, ID PH_hs_0048993) was −2.677 and the “log2 (Ratio) GPR39” value (mRNA, MDA-MB-231 cells, 24-h treatment, ID PH_hs_0049449) was −2.73. For the same compound, the “log2 (Ratio) HSPA6” value (mRNA, MDA-MB-231 cells, 24-h treatment, ID PH_hs_0049600) was 6.644, the “log2 (Ratio) ZNF121” value (mRNA, MDA-MB-231 cells, 24-h treatment, ID PH_hs_0060053) was 2.575 and the “log2 (Ratio) TRIB3” value (mRNA, MDA-MB-231 cells, 24-h treatment, ID PH_hs_0060828) was 2.735. The “log2 (Ratio) ZBTB21” value (mRNA, MDA-MB-231 cells, 24-h treatment, ID PH_hs_0061012) was 2.731, the “log2 (Ratio) AKR1C1|LOC101060798” value (mRNA, MDA-MB-231 cells, 24-h treatment, ID PH_hs_0062199) was 3.357 and the “log2 (Ratio) CDKN1A” value (mRNA, MDA-MB-231 cells, 24-h treatment, ID PH_hs_p061784) was 2.967. The “genes expressed at least by 2.5 folds compared with untreated control” value (total) was 97 genes.
